Calls of active or inactive are those of the source. The rule behind the calls is not given here.
Key:
[1] = system: HEK293; experiment: Induction of apoptosis in 293 cells at 1.25 ug/mL; type: functional, cell-based; settings: Homo sapiens
[2] = system: UT7; experiment: Growth inhibition of human UT7 cells by MTT assay; type: functional, cell-based
[3] = system: K562; experiment: Growth inhibition of human K562 cells by MTT assay; type: functional, cell-based
[4] = system: K562; experiment: Growth inhibition of human K562 cells at 0.4 ug/mL after 48 hrs by MTT assay; type: functional; settings: K562, 48 h
[5] = system: UT7; experiment: Growth inhibition of human UT7 cells at 0.4 ug/mL after 48 hrs by MTT assay; type: functional; settings: UT7, 48 h

Compound | Activity [1] | Activity [2] | Activity [3] | inhibition at 0.4 µg/mL [4] | inhibition at 0.4 µg/mL [5]
CNC(=O)c1c(N(C)C=O)ncn1C/C=C(\C)CC/C=C(\C)CCC/C(C)=C/C(=O)CC(C)C | Active |  |  |  | 
C/C(=C\CC/C(C)=C/Cn1cnc2c1C(=O)N(C)CN2C)CC/C=C(\C)CC(=O)CC(C)C [NUTTINGIN C] | Active | Dose-dependent effect | Dose-dependent effect | 30% | 50%
CNC(=O)c1c(N(C)C=O)ncn1C/C=C(\C)CC/C=C(\C)CC/C=C(\C)CC(=O)CC(C)C | Active |  |  |  | 
C/C(=C\CNC=O)CC/C=C(\C)CCC/C(C)=C/C(=O)CC(C)C | Active |  |  |  | 
C/C(=C\Cn1cnc2c1C(=O)N(C)CN2C)CC/C=C(\C)CCC/C(C)=C/C(=O)CC(C)C [NUTTINGIN D] | Active | Dose-dependent effect | Dose-dependent effect | 30% | 50%
C/C(=C\Cn1cnc2c1c(=O)ncn2C)CC/C=C(\C)CCC/C(C)=C/C(=O)CC(C)C | Active |  |  |  | 
C/C(=C/C(=O)CC(C)C)CCC/C(C)=C/CC/C(C)=C/Cn1cnc2c1C(=O)N(C)CN2C [NUTTIGIN E] | Active |  |  | 30% | 50%
C/C(=C/C(=O)CC(C)C)CCC/C(C)=C/CC/C(C)=C/Cn1cnc2c1c(=O)n(C)c(=O)n2C | Active |  |  |  | 
C/C(=C\CC/C(C)=C/Cn1cnc2c1c(=O)n(C)c(=O)n2C)CC/C=C(\C)CC(=O)CC(C)C | Active |  |  |  | 
C/C(=C\CC/C(C)=C/Cn1cnc2c1c(=O)ncn2C)CC/C=C(\C)CC(=O)CC(C)C | Active |  |  |  | 

Reference: ChEMBL document CHEMBL1145433, “Nuttingins A-F and malonganenones D-H, tetraprenylated alkaloids from the Tanzanian gorgonian Euplexaura nuttingi” (2007)
